Experimental data: patent EP4759810A1, “PROTAC TARGETING BCL-XL PROTEIN AND USE THEREOF” (BEIJING SUNCELL BIO-MEDICAL CO., LTD., priority 2023, dated 2025)
Like-named read-outs stand apart in the source and are kept apart here.

Key:
[1] = tested on: Molt-4 cells; assay: Molt-4 cell killing activity test (CCK-8); format: cell-based; details: for activity for killing Molt-4 cells, in words: comparison with C1, the targeting ligand or control molecules; for killing Molt-4 cells at different concentrations (Figure 1), in words: 0.001-3 µM, comparison with control molecules
Description: Molt-4 cells were cultured and amplified in 10 cm dishes by using RPMI-1640 medium supplemented with 10% fetal bovine serum. Actively growing and healthy Molt-4 cells were collected, centrifuged at 1000 rpm for 5 minutes, and after removing the supernatant, the cells were resuspended in fresh RPMI-1640 medium containing 10% fetal bovine serum. Cell counting was then performed. The cell density was adjusted to 120,000 cells per milliliter, and 100 µL of the cell suspension was added to each well of a 96-well transparent cell culture plate. It was noted that the edge wells of the 96-well plate were not used for testing; and 300 µL of PBS alone was added to these wells to reduce medium evaporation.
The small molecule compounds to be tested for activity were prepared. A series of small molecule concentration gradients (0.001, 0.003, 0.01, 0.03, 0.1, 0.3, 1, and 3 µM) were pre-set, and a series of 2× drug dilutions for the above concentrations were prepared in RPMI-1640 medium containing 10% fetal bovine serum. 100 µL of the above medium containing the gradient concentrations of the drug was added to each well of a 96-well plate pre-seeded with cells, so that the final drug concentration in each well was the pre-set concentration gradient. Three replicate wells were used for each tested drug concentration. The 96-well plate was placed back in a 37°C incubator, and the cell viability was measured after three days.
The plate was taken out three days after adding the drugs, and 100 µL of pre-prepared CCK-8 working solution was added to each well. The CCK-8 working solution was obtained through diluting a CCK-8 stock solution (C0041, Beyotime) by 10-fold volumn with a serum-free RPMI-1640 medium. The 96-well plates with the added CCK-8 working solution were placed back in the 37°C incubator and incubated for 0.5-2 hours. The plates were then taken out, and the absorbance value (OD value) of each well was measured at a wavelength of 450 nm, and the cell viability in each experimental group was calculated according to the following formula: Relative cell viability (%) = […] × 100%.

[2] = Metabolic stability assay in liver microsomes (mouse); format: in vitro ADME; details: mouse liver microsomes 0.5 mg/mL; 1 µM compound; 37°C
Description: (§1) The metabolic reaction of compounds in liver microsome was performed in a system with a total volume of 400 µL, and the following steps below were sequentially performed for the reaction and detection: 1) 200 µL of phosphate buffer (200 mM), 106 µL of sterile ultrapure water, and 40 µL of magnesium chloride solution (50 mM) were added to each detection tube to prepare a reaction working solution. 2) Two reaction systems with or without adding NADPH were prepared for each compound to be tested. For the reaction system with adding NADPH: 10 µL of liver microsomes (20 mg/mL) and 40 µL of NADPH (10 mM) were added to the above working solution; for the reaction system without adding NADPH: 10 µL of liver microsomes (20 mg/mL) and 40 µL of sterile ultrapure water were added to the above working solution. The final concentration of liver microsomes in both reaction systems was 0.5 mg/mL. 3) 4 µL of the compound to be tested ([…]) was added to each reaction tube, resulting in a final concentration of 1 µM for the compound in the reaction system. The detection tubes were placed at 37°C for reaction. 4) 50 µL samples were taken from each detection tube at 0, 15, 30, 45, and 60 minutes after adding the compound. The reaction was terminated by adding cold acetonitrile containing IS (100 nM alprazolam, 200 nM labetalol, 200 nM caffeine, and 2 µM ketoprofen) in a 4× volume. The samples were centrifuged at 3220 g for 40 minutes, 100 µL of the supernatant was mixed with 100 µL of ultrapure water, and a sample was taken for LC-MS/MS analysis.
(§2) Calculation of in vitro liver microsomal metabolic half-life and in vitro metabolic intrinsic clearance rate: The LC-MS detection results were analyzed to obtain the percentage of the remaining amount of the tested compound relative to the initial amount at each time point. The natural logarithm of the remaining percentage was linearly fitted against the incubation time.

[3] = Metabolic stability assay in liver microsomes (human); format: in vitro ADME; details: human liver microsomes 0.5 mg/mL; 1 µM compound; 37°C
Description: as §1, §2

[4] = Homo sapiens, 72 h, Molt-4 cells, three days, CCK-8, read-out: EC50 (Molt-4)
[5] = Homo sapiens, Bcl-xL-positive Molt-4 cells, read-out: cellular activity / killing activity (Molt-4 cells)

| Structure (SMILES) | EC50 [1, 4] [nM] | activity for killing Molt-4 cells, in words [1] | also measured |
| --- | --- | --- | --- |
| O=C1CCC(N2C(=O)c3cccc(NCCOCCOCCOCCOCCNC(=O)c4nc(N5CCc6cccc(C(=O)Nc7nc8ccccc8s7)c6C5)ccc4CCCOc4ccc(C#CCN5CCNCC5)cc4F)c3C2=O)C(=O)N1 (centres unmarked) [AF4] | > 1000 | lower killing activity or loss the function |  |
| Cc1c(-c2ccc(N3CCc4cccc(C(=O)Nc5nc6ccccc6s5)c4C3)nc2C(=O)NCCOCCOCCNc2cccc3c2C(=O)N(C2CCC(=O)NC2=O)C3=O)cnn1CC12CC3CC(CC(C3)C1)C2 (centres unmarked) [APF2] | < 10 | good cellular activity similar to those of the targeting ligand per se |  |
| Cc1c(-c2ccc(N3CCc4cccc(C(=O)Nc5nc6ccccc6s5)c4C3)nc2C(=O)NCCOCCOCCOCCNc2cccc3c2C(=O)N(C2CCC(=O)NC2=O)C3=O)cnn1CC12CC3CC(CC(C3)C1)C2 (centres unmarked) [APF3] | < 10 | good cellular activity similar to those of the targeting ligand per se |  |
| Cc1c(-c2ccc(N3CCc4cccc(C(=O)Nc5nc6ccccc6s5)c4C3)nc2C(=O)NCCOCCOCCOCCOCCNc2cccc3c2C(=O)N(C2CCC(=O)NC2=O)C3=O)cnn1CC12CC3CC(CC(C3)C1)C2 (centres unmarked) [APF4] | < 10 | good cellular activity similar to those of the targeting ligand per se |  |
| CN[C@@H](C)C(=O)N[C@H](C(=O)N1CCC[C@H]1c1nc(C(=O)c2cccc(OCCN3CCC(CN4CCN(CC#Cc5ccc(OCCCc6ccc(N7CCc8cccc(C(=O)Nc9nc%10ccccc%10s9)c8C7)nc6C(=O)O)c(F)c5)CC4)CC3)c2)cs1)C1CCCCC1 [APL-1] | 10 to 100 |  |  |
| Cc1ncsc1-c1ccc([C@H](C)NC(=O)[C@@H]2C[C@@H](O)CN2C(=O)[C@@H](NC(=O)CCN2CCC(CN3CCN(CC#Cc4ccc(OCCCc5ccc(N6CCc7cccc(C(=O)Nc8nc9ccccc9s8)c7C6)nc5C(=O)O)c(F)c4)CC3)CC2)C(C)(C)C)cc1 [APQ3] | 10 to 100 |  |  |
| O=C1CCN(c2ccc(N3CCN(C(=O)CCN4CCN(CC#Cc5ccc(OCCCc6ccc(N7CCc8cccc(C(=O)Nc9nc%10ccccc%10s9)c8C7)nc6C(=O)O)c(F)c5)CC4)CC3)cc2)C(=O)N1 [APQ5a] | < 10 |  | EC50 [1, 5]: < 10 nM |
| O=C1CCN(c2ccc(N3CCN(C(=O)CCCN4CCN(CC#Cc5ccc(OCCCc6ccc(N7CCc8cccc(C(=O)Nc9nc%10ccccc%10s9)c8C7)nc6C(=O)O)c(F)c5)CC4)CC3)cc2)C(=O)N1 [APQ5b] | 10 to 100 |  |  |
| O=C1CCN(c2ccc(N3CC(CN4CCN(CC#Cc5ccc(OCCCc6ccc(N7CCc8cccc(C(=O)Nc9nc%10ccccc%10s9)c8C7)nc6C(=O)O)c(F)c5)CC4)C3)cc2)C(=O)N1 [APQ6b] | 10 to 100 |  |  |
| O=C1CCN(c2ccc(N3CCN(C4CCN(CC#Cc5ccc(OCCCc6ccc(N7CCc8cccc(C(=O)Nc9nc%10ccccc%10s9)c8C7)nc6C(=O)O)c(F)c5)CC4)CC3)cc2)C(=O)N1 [APQ7a] | < 10 |  | killing Molt-4 cells at different concentrations (Figure 1), in words [1]: comparable to A-1331852; EC50 [1, 5]: < 10 nM |
| O=C1CCN(c2ccc(N3CCN(CC4CCN(CC#Cc5ccc(OCCCc6ccc(N7CCc8cccc(C(=O)Nc9nc%10ccccc%10s9)c8C7)nc6C(=O)O)c(F)c5)CC4)CC3)cc2)C(=O)N1 [APQ7b] | 10 to 100 |  |  |
| O=C1CCN(c2ccc(OCCN3CCC(CN4CCN(CC#Cc5ccc(OCCCc6ccc(N7CCc8cccc(C(=O)Nc9nc%10ccccc%10s9)c8C7)nc6C(=O)O)c(F)c5)CC4)CC3)cc2)C(=O)N1 [APQ8] | 10 to 100 |  |  |
| COC(=O)c1nc(N2CCc3cccc(C(=O)Nc4nc5ccccc5s4)c3C2)ccc1CCCOc1ccc(C#CCN2CCN(c3ccc(N4CCC(=O)NC4=O)cc3)CC2)cc1F [APQ9-1] | > 1000 | lower killing activity or loss the function |  |
| CC(C)(C)OC(=O)c1nc(N2CCc3cccc(C(=O)Nc4nc5ccccc5s4)c3C2)ccc1CCCOc1ccc(C#CCN2CCN(CC3CCN(c4ccc(N5CCC(=O)NC5=O)cc4)CC3)CC2)cc1F [APQ10-1] | > 1000 | lower killing activity or loss the function |  |
| O=C1CCC(n2nnc3ccc(NCCN4CCC(CN5CCN(CC#Cc6ccc(OCCCc7ccc(N8CCc9cccc(C(=O)Nc%10nc%11ccccc%11s%10)c9C8)nc7C(=O)O)c(F)c6)CC5)CC4)cc3c2=O)C(=O)N1 (centres unmarked) [APQ11] | < 10 |  | killing Molt-4 cells at different concentrations (Figure 1), in words [1]: comparable to A-1331852; EC50 [1, 5]: < 10 nM |
| COc1cc(N2CCN(CC#Cc3ccc(OCCCc4ccc(N5CCc6cccc(C(=O)Nc7nc8ccccc8s7)c6C5)nc4C(=O)O)c(F)c3)CC2)ccc1N1CCC(=O)NC1=O [APQ902a] | < 10 |  | EC50 [1, 5]: < 10 nM |
| Cc1c(-c2ccc(N3CCc4cccc(C(=O)Nc5nc6ccccc6s5)c4C3)nc2C(=O)NCCn2cc(COCCNc3cccc4c3C(=O)N(C3CCC(=O)NC3=O)C4=O)nn2)cnn1CC12CC3CC(CC(C3)C1)C2 (centres unmarked) [APR1] | < 10 | good cellular activity similar to those of the targeting ligand per se |  |
| Cc1c(-c2ccc(N3CCc4cccc(C(=O)Nc5nc6ccccc6s5)c4C3)nc2C(=O)NCCn2cc(COCCOCCNc3cccc4c3C(=O)N(C3CCC(=O)NC3=O)C4=O)nn2)cnn1CC12CC3CC(CC(C3)C1)C2 (centres unmarked) [APR2] | < 10 | good cellular activity similar to those of the targeting ligand per se |  |
| Cc1c(-c2ccc(N3CCc4cccc(C(=O)Nc5nc6ccccc6s5)c4C3)nc2C(=O)NCCn2cc(COCCOCCOCCNc3cccc4c3C(=O)N(C3CCC(=O)NC3=O)C4=O)nn2)cnn1CC12CC3CC(CC(C3)C1)C2 (centres unmarked) [APR3] | < 10 | good cellular activity similar to those of the targeting ligand per se |  |
| Cc1c(-c2ccc(N3CCc4cccc(C(=O)Nc5nc6ccccc6s5)c4C3)nc2C(=O)NCCn2cc(COCCOCCOCCOCCNc3cccc4c3C(=O)N(C3CCC(=O)NC3=O)C4=O)nn2)cnn1CC12CC3CC(CC(C3)C1)C2 (centres unmarked) [APR4] | < 10 | good cellular activity similar to those of the targeting ligand per se |  |
| [2H]C1([2H])Cc2cccc(C(=O)Nc3nc4ccccc4s3)c2CN1c1ccc(-c2cnn(CC34CC5CC(CC(C5)C3)C4)c2C)c(C(=O)NCCOCCOCCOCCNc2cccc3c2C(=O)N(C2CCC(=O)NC2=O)C3=O)n1 (centres unmarked) [Compound A13D6-PF3] | < 10 | good cellular activity similar to those of the targeting ligand per se |  |
| [2H]c1c([2H])c([2H])c2sc(NC(=O)c3cccc4c3CN(c3ccc(-c5cnn(CC67CC8CC(CC(C8)C6)C7)c5C)c(C(=O)O)n3)CC4)nc2c1[2H] [Compound A13D-1] |  |  | Clint [2]: 266.89 µL/min/mg protein; T1/2 [2]: 5.19 min; Clint [3]: 235.82 µL/min/mg protein; T1/2 [3]: 5.88 min |
| [2H]C1([2H])c2c(C(=O)Nc3nc4ccccc4s3)cccc2C([2H])([2H])C([2H])([2H])N1c1ccc(-c2cnn(CC34CC5CC(CC(C5)C3)C4)c2C)c(C(=O)O)n1 [Compound A13D-2] |  |  | Clint [2]: 18.15 µL/min/mg protein; T1/2 [2]: 76.36 min; Clint [3]: 55.31 µL/min/mg protein; T1/2 [3]: 25.06 min |
| CN(C)CC#Cc1ccc(OCCCc2sc(N3CCc4cccc(C(=O)Nc5nc6ccccc6s5)c4C3)nc2C(=O)O)c(F)c1 [Compound A-1155463, reference compound] |  |  | EC50 ([1]; Molt-4 cells, three days, CCK-8, read-out: EC50 (Molt-4)): < 10 nM |
